The text below walks through data of patent US4912119A, “Imidazolylguanidine derivatives and compositions containing these compounds” (Heumann Pharma GmBH & Co., priority 1986, dated 1990).

The target of experiment [1] is T1, histamine-H2 receptors (Cavia porcellus, UniProt P47747).
T1 construct: determined on isolated atrium and ileum of guinea-pig; from tissue; host or cells: isolated guinea-pig atrium
The experiment can be described thus: H2-agonistic activity, isolated guinea-pig atrium (method of van Rossum, cumulative dose-response curves). The experiment is classed as biochemical. To be noted: read-out: pD2 -value (Atrium) (converted). The text has this:
(§1) The compounds according to this invention are distinguished by a novel, hitherto unknown and undescribed pharmacological overall activity. The new class of structure according to this invention has both a H1 -antagonistic active component and an H2 -agonistic component. These manifest the pharmacological results shown below. One recognized method of determining the H1 -antagonistic activity is the determination of the pA2 -values in vitro (O. Arunlakshana and H. O. Schild, (1959), "Some Quantitative Uses of Drug Antagonists", Br. J. Pharmac. Chemother, 14, 48-58). To determine the H2 -agonistic activity (pD2 -values), the method of J. M. van Rossum, (1963) is employed, described in "Cumulative Dose-Response Curves II. Technique for the Making of Dose-Response Curves in Isolated Organs and the Evaluation of Drug Parameters", Arch. Intern. Pharmacodyn. Therap. 143, 299-307. |(determined on isolated atrium and ileum of guinea-pig)

Experiment [2] concerns the target T2, histamine H1 receptor (Cavia porcellus, UniProt P31389).
T2 construct: determined on isolated atrium and ileum of guinea-pig; from tissue; host or cells: isolated guinea-pig ileum
Put plainly: H1-antagonistic activity in vitro, isolated guinea-pig ileum (method of Arunlakshana and Schild). The experiment is classed as biochemical. Particulars: for Kb: read-out: pA2 -value (Ileum) (converted).
Excerpt: as §1

Counter-ions that a name gives are not always drawn.

T1 sequence (P47747 whole entry): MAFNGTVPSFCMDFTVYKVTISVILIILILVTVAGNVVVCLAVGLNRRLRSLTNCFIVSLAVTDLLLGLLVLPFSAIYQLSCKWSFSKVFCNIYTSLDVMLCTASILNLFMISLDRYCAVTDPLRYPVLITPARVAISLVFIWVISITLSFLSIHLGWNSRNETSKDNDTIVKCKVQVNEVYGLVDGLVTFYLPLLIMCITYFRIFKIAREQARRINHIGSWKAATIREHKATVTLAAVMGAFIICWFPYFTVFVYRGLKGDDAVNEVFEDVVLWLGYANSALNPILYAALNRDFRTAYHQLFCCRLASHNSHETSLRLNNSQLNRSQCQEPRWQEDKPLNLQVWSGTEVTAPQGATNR
T2 sequence (P31389 whole entry): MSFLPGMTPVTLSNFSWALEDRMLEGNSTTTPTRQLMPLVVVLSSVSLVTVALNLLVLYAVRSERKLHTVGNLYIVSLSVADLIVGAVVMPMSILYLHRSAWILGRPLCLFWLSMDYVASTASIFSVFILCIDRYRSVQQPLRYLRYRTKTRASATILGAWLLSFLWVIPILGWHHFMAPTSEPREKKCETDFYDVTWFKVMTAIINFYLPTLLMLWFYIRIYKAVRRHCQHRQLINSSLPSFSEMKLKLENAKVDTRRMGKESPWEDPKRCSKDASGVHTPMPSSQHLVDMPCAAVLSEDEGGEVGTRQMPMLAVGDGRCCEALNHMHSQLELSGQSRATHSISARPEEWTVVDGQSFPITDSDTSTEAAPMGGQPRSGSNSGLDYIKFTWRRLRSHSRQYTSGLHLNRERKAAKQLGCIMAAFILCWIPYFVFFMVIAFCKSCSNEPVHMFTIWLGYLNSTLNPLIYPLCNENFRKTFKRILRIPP

For the compound `N=C(NCCCCc1ccccn1)NCCCc1c[nH]cn1` [Example 2, N^1-[3-(1H-Imidazol-4-yl)propyl]-N^2-[4-(pyridin-2-yl)butyl]-guanidine hydriodide], the EC50 in experiment [1] is 112 nM. Further, the Kb in experiment [2] was 309 nM.
Take `N=C(NCCCc1c[nH]cn1)NCCCN(Cc1ccc(Cl)cc1)c1ccccn1` [Example 3, N^1-[3-(1H-Imidazol-4-yl)propyl]-N^2-[3-[N-(4-chlorobenzyl)-N-(pyridin-2-yl)amino]propyl]-guanidine hydriodide]: in experiment [1], the EC50 is 2140 nM. The Kb in experiment [2] is 2.51 nM.
As to `N=C(NCCCc1c[nH]cn1)NCCN(Cc1cccs1)c1ccccn1` [Example 4, N^1-[3-(1H-Imidazol-4-yl)propyl]-N^2 [2-[N-(pyridin-2-yl)-N-(thiophen-2-yl-methyl)amino]ethyl]-guanidine hydriodide], the EC50 in experiment [1] is 437 nM. Besides, in experiment [2], the Kb was 9.12 nM.
Take `CC(CCNC(=N)NCCCc1c[nH]cn1)(c1ccccc1)c1ccccc1` [Example 8, N^1-[3-(1H-Imidazol-4-yl)propyl]-N^2-(3,3-diphenylbutyl)-guanidine hydrochloride]: the EC50 in experiment [1] was 123 nM. In experiment [2], the Kb is 37.2 nM.
In the case of `N=C(NCCCc1c[nH]cn1)NCCC(c1ccc(Cl)c(Cl)c1)c1ccccn1` (centres unmarked) [Example 14, N^1-[3-(3,4-Dichlorophenyl)-3-(pyridin-2-yl)propyl]-N^2-[3-(1H-imidazol-4-yl)propyl]-guanidine], in experiment [1], the EC50 was 6.31 nM. The Kb in experiment [2] is 115 nM.
Turning to `N=C(NCCCc1c[nH]cn1)NCCC(c1ccccn1)c1ccc(Cl)cc1Cl` (centres unmarked) [Example 16, N^1-[3-(2,4-Dichlorophenyl)-3-(pyridin-2-yl)propyl]-N^2-[3-(1H-imidazol-4-yl)-propyl]-guanidine], the EC50 in experiment [1] is 13.8 nM. Further, the Kb in experiment [2] is 112 nM.
For `NC(=NCCCc1c[nH]cn1)NCCC(c1ccc(F)c(F)c1)c1ccccn1` (centres unmarked) [Example 17, N^1-[3-(3,4-Difluorophenyl)-3-(pyridin-2-yl)propyl]-N^2-[3-(1H-imidazol-4-yl)propyl]-guanidine], the EC50 in experiment [1] was 7.59 nM. The “pA2 -value (Ileum)” value in experiment [2] came out at 7.07.
On to `N=C(NCCCc1c[nH]cn1)NCCC(c1cc(F)cc(F)c1)c1ccccn1` (centres unmarked) [Example 18, N^1-[3-(3,5-Difluorophenyl)-3-(pyridin-2-yl)propyl]-N^2-[3-(1H-imidazol-4-yl)propyl]-guanidine], for which the EC50 in experiment [1] was 8.91 nM. For the same compound, in experiment [2], the Kb is 282 nM.
Regarding `NC(=NCCCc1c[nH]cn1)NCCC(c1cccc(Cl)c1)c1ccccn1` (centres unmarked) [Example 20, N^1-[3-(3-Chlorophenyl)-3-(pyridin-2-yl)propyl]-N^2-[3-(1H-imidazol-4-yl)propyl]-guanidine], in experiment [1], the EC50 is 11.5 nM. The “pA2 -value (Ileum)” value in experiment [2] is recorded as 7.05.
Consider `NC(=NCCCc1c[nH]cn1)NCCC(c1ccc(F)cc1)c1cccnc1` (centres unmarked) [Example 24, N^1-[3-(4-Fluorophenyl)-3-(pyridin-3-yl)propyl]-N^2-[3-(1H-imidazol-4-yl)-propyl]-guanidine], for which the EC50 in experiment [1] was 8.13 nM. For the same compound, in experiment [2], the “pA2 -value (Ileum)” value is recorded as 6.71.
